This test has as its target Coagulation factor XI (Homo sapiens, UniProt P03951). The experiment in a line: human FXIa inhibitor potency, dose response, biochemical (AID 679).
Sequence of Coagulation factor XI (P03951 19-387 limits assumed): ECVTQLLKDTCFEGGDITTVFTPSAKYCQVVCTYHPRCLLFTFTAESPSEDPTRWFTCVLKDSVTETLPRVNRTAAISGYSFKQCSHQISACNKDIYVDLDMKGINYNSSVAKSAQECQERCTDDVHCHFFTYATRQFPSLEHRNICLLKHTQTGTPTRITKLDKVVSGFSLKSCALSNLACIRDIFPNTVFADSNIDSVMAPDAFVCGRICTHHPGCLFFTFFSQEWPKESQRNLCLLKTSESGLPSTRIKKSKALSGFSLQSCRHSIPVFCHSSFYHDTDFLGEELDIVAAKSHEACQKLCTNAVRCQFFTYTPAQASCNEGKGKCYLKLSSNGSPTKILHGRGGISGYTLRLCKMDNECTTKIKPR
Sequence of Coagulation factor XI (P03951 388-625 limits assumed): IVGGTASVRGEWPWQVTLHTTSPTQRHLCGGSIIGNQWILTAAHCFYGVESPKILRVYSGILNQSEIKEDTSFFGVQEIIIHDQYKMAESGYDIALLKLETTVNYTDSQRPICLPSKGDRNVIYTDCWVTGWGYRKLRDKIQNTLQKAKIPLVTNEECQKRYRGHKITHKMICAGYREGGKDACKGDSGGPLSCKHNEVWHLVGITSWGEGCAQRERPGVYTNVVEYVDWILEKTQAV
As for `O=C(Nc1ccccc1C(=O)N1CCOCC1)c1ccc(F)cc1` [4-fluoro-N-[2-[4-morpholinyl(oxo)methyl]phenyl]benzamide], the half-maximal inhibitory concentration (IC50) – broadly, the point on the concentration scale where inhibition reaches its midpoint – came out at 21.4 µM. This lies in the double-digit micromolar range.

The molecule `COc1ccc(OCCSc2nc[nH]n2)cc1` [5-[2-(4-methoxyphenoxy)ethylsulfanyl]-1H-1,2,4-triazole] returned an IC50 of over 50 µM.

`Cc1cc(=O)[nH]c(-n2[nH]c(C)cc2=O)n1` [6-methyl-2-(3-methyl-5-oxo-2,5-dihydro-1H-pyrazol-1-yl)-4(3H)-pyrimidinone] gave a 50% inhibitory concentration (IC50) of over 50 µM.

In turn, `COc1ccc2c(=O)cc(-c3ccccc3)n(C)c2c1` [7-methoxy-1-methyl-2-phenyl-4-quinolinone] gave an IC50 of over 50 µM.

The molecule `CCOc1cccc2cc(C(N)=O)/c(=N/Cc3ccccc3)oc12` [8-ethoxy-2-(phenylmethyl)imino-chromene-3-carboxamide] registered an IC50 of over 50 µM.

Consider `CCc1ccc(CC2SC(=C(C#N)C(C)=O)NC2=O)cc1` (stereo unspecified) [(2E)-2-[5-[(4-ethylphenyl)methyl]-4-oxo-2-thiazolidinylidene]-3-oxobutanenitrile], for which the IC50 is over 50 µM.

Molecule `CC(C)c1nc2ccc(NC(=O)C3CCCCC3)cc2[nH]1` [Cyclohexanecarboxylic acid (2-isopropyl-1H-benzoimidazol-5-yl)-amide] yielded an IC50 of over 50 µM.

`O=S(=O)(Cc1ccccc1)N1CCC(c2nc(-c3cccs3)no2)CC1` [MLS000027341] came in with an IC50 of over 50 µM.

For `Cc1c(O)ccc(C(=O)CN2C(=O)c3ccccc3C2=O)c1O` [MLS000050535], the half-inhibitory concentration (IC50) was over 50 µM.

Take `CCOC(=O)c1c(C)n(Cc2ccccc2)c2ccc(OCC(O)Cn3nc(C)cc3C)cc12` (stereo unspecified) [MLS000121399]: the IC50 is over 50 µM.

For the molecule `COc1cccc(C(=O)N(Cc2ccccc2)Cc2cc3cc4c(cc3nc2O)OCCO4)c1` [MLS000123157], the IC50 was determined as 10.4 µM.

For the molecule `CCOc1ccc(S(=O)(=O)NCc2ccc(OC)cc2)c2cccnc12` [MLS000521584], the half-maximal inhibitory concentration (IC50) is over 50 µM.

As for `O=C(Oc1ccc2c(=O)c(Cl)coc2c1)c1cccnc1` [MLS000523505], the IC50 was over 50 µM.

Regarding `Cc1ccc(C(=O)n2nnc3ccccc32)cc1` [MLS000527467], the IC50 came out at 2.39 µM.

In the case of `CCC1(c2ccccc2)C(=O)N(C)C(=O)N(C)C1=O` [MLS000532164], the IC50 was over 50 µM.

`CC1=C(C(=O)OC(C)C)C(c2coc3ccccc3c2=O)C2C(=O)CCCC2=N1` (stereo unspecified) [MLS000533594]: the IC50 was over 50 µM.

The molecule `C=CCn1c(=O)c2c(nc(Br)n2Cc2ccccc2Cl)n(C)c1=O` [MLS000555959] yielded an IC50 of 0.638 µM.

With `Cc1c(NC(=O)c2cc3ccccc3o2)c(=O)n(-c2ccccc2)n1C` [MLS000556522], the IC50 was over 50 µM.

Take `CCOc1cc(S(=O)(=O)N(Cc2ccccc2)Cc2ccccc2)c(OCC)cc1-n1cnnn1` [N,N-Dibenzyl-2,5-diethoxy-4-tetrazol-1-yl-benzenesulfonamide]: the IC50 was over 50 µM.

In the case of `Cn1nnnc1SCC(=O)N(C1CCCCC1)C1CCCCC1` [N,N-dicyclohexyl-2-[(1-methyl-5-tetrazolyl)thio]acetamide], the IC50 is over 50 µM.

For `CCc1ccc(NC(=O)Cn2nc(C(F)(F)F)c3c2CCC3)cc1` [N-(4-Ethyl-phenyl)-2-(3-trifluoromethyl-5,6-dihydro-4H-cyclopentapyrazol-1-yl)-acetamide], the IC50 is over 50 µM.

Molecule `Cc1ccc(NS(=O)(=O)c2ccc(OCC(=O)N3CCOCC3)cc2)cc1` [N-(4-methylphenyl)-4-(2-morpholin-4-yl-2-oxidanylidene-ethoxy)benzenesulfonamide] had an IC50 of over 50 µM.

On to `CCC1CC2CC(NC(C)=O)C1C2` (stereo unspecified) [N-(5-ethyl-3-bicyclo[2.2.1]heptanyl)ethanamide], for which 0.588 µM corresponded to half-maximal inhibition (IC50).

In turn, `Cc1ccc(N(C(=O)c2ccccn2)C2(C(=O)NC3CCCC3)CCCCC2)cc1` [N-[1-(cyclopentylcarbamoyl)cyclohexyl]-N-(4-methylphenyl)pyridine-2-carboxamide] yielded an IC50 of over 50 µM.

`Cc1ccc(-c2csc(N3CCC(NS(=O)(=O)c4ccc5c(c4)OCCO5)CC3)n2)cc1` [N-[1-[4-(4-methylphenyl)-1,3-thiazol-2-yl]piperidin-4-yl]-2,3-dihydro-1,4-benzodioxine-6-sulfonamide] had a concentration for half-maximal inhibition (IC50) of over 50 µM.

Take `COc1ccc(OCC(=O)Nc2cc(-c3nn(C)c(=O)c4ccccc34)ccc2OC)cc1` [N-[2-Methoxy-5-(3-methyl-4-oxo-3,4-dihydro-phthalazin-1-yl)-phenyl]-2-(4-methoxy-phenoxy)-acetamide]: the IC50 was over 50 µM.

Turning to `CCOC(=O)N=S(=O)(Oc1ccc([N+](=O)[O-])cc1)c1ccccc1` (stereo unspecified) [N-[(4-nitrophenoxy)-oxo-phenyl--sulfanylidene]carbamic acid ethyl ester], the IC50 is over 50 µM.

On to `CN(CCOc1ccccc1)c1ccc(S(=O)(=O)N2CCCCC2)cn1` [N-methyl-N-(2-phenoxyethyl)-5-piperidin-1-ylsulfonylpyridin-2-amine], for which the half-inhibitory concentration (IC50) was over 50 µM.

The molecule `Cc1cccc(NC(=O)c2snc3c(=O)[nH]cnc23)c1` [SMR000000702] had a 50% inhibitory concentration (IC50) of over 50 µM.

In turn, `CCCN(CCC)C(C(=O)Nc1cccc(OC)c1)c1ccccc1` (stereo unspecified) [SMR000064514] returned an IC50 of over 50 µM.

On to `CCCC(=O)n1nc(-c2ccccc2)nc1SC` [SMR000113998], for which the IC50 was over 50 µM.

`O=C(Oc1cccc(-n2cnnn2)c1)c1ccco1` [SMR000117840] returned an IC50 of 4.06 µM.

`O=C(c1cccc2ccccc12)n1nnc2ccccc21` [SMR000118701] returned a half-inhibitory concentration (IC50) of over 50 µM.

In turn, `COC(=O)C(Cc1c[nH]c2ccccc12)NC(C)=O` (stereo unspecified) [SMR000121078] came in with an IC50 of 6.69 µM. This lies in the single-digit micromolar range.

In turn, `COCC/N=C1\Sc2nc3c(C)cccc3cc2CN1Cc1ccco1` [SMR000122349] gave an IC50 of 0.745 µM.

`COc1cc(C=c2sc3n(c2=O)CCCN=3)ccc1O` [SMR000126740] returned an IC50 of over 50 µM.

Regarding `O=C(c1ccc(F)cc1)N1CCN(C(=O)c2cccnc2)CC1` [SMR000140978], the IC50 was over 50 µM.

For `COC(=O)c1sc(NC(=O)CC(C)C)c(C(=O)OC)c1C` [SMR000141040], the IC50 is over 50 µM.

`Cc1cc(C)n2nc(C(=O)Nc3ccc4c(c3)OCO4)cc2n1` [SMR000144727]: the IC50 is over 50 µM.

With `CCc1c(O)nc(SCC(=O)NC(C)(C)C)n(-c2ccccc2)c1=O` [SMR000147407], the IC50 was over 50 µM.

With `N#Cc1c(N)nc2c(c1N)=C(N)SC1=NC(=O)CC(c3ccccc3Cl)C=21` (stereo unspecified) [SMR000147835], the IC50 was over 50 µM.

Molecule `CNC(=O)COC(=O)c1[nH]c(C)c(C(C)=O)c1C` [SMR000152883] gave an IC50 of over 50 µM.

In turn, `COc1ccccc1-n1cnnc1SCC(=O)Nc1nc(C)c(Cl)cc1Cl` [SMR000153344] showed an IC50 of 10.2 µM.

`CCn1c(SCC(=O)c2[nH]c(C)c(C(C)=O)c2C)nnc1-c1ccccc1` [SMR000153346] registered an IC50 of 7.44 µM.

Consider `Cc1cnc(C(=O)OCC(=O)NCc2ccccc2)cn1` [[2-(benzylamino)-2-oxoethyl] 5-methylpyrazine-2-carboxylate], for which the IC50 was over 50 µM.

`Cc1cc(NC(=O)COC(=O)c2c(C)nn(Cc3ccccc3)c2C)no1` [[2-[(5-methyl-1,2-oxazol-3-yl)amino]-2-oxoethyl] 1-benzyl-3,5-dimethylpyrazole-4-carboxylate] had an IC50 of over 50 µM.

In turn, `COC(=O)CSc1nnc(C)n1-c1cccc(OC)c1` [[4-(3-Methoxy-phenyl)-5-methyl-4H-[1,2,4]triazol-3-ylsulfanyl]-acetic acid methyl ester] showed an IC50 of 2.36 µM.

With `CCOC(=O)c1cc2c(ccn2C)n1CC(=O)N1CCC(C)CC1` [ethyl 1-methyl-4-[2-(4-methylpiperidin-1-yl)-2-oxoethyl]pyrrolo[3,2-b]pyrrole-5-carboxylate], the IC50 was determined as 0.744 µM.

Consider `CCOC(=O)c1c(C)nc2c(c1C)c(=O)oc1ccccc12` [ethyl 2,4-dimethyl-5-oxochromeno[4,3-b]pyridine-3-carboxylate], for which the IC50 is over 50 µM.

The molecule `COC(=O)c1ccc(NC(=O)Cc2c(O)n(-c3ccc(C)cc3)c(=O)n2CC(C)C)cc1` [methyl 4-[2-[1-(4-methylphenyl)-3-(2-methylpropyl)-2,5-bis(oxidanylidene)imidazolidin-4-yl]ethanoylamino]benzoate] came in with an IC50 of over 50 µM.

`COC(=O)c1[nH]c2ccc(Br)cc2c1NC(=O)CN1CCCc2ccccc21` [methyl 5-bromanyl-3-[2-(3,4-dihydro-2H-quinolin-1-yl)ethanoylamino]-1H-indole-2-carboxylate] had an IC50 of over 50 µM.

For the origin of these results see BindingDB's records for doi:10.7270/Q2W957K6 (Pcmd, 2008).
